The text below walks through data of PubChem BioAssay (NCI).

What all share (assay): NCI anticancer screen, dose series, 48 h
Assay [1] relates to SN12C renal.
Assay [2] relates to SK-MEL-2 melanoma.
Assay [3] concerns CAKI-1 renal.
In assay [4] the test system is UO-31 renal.
Assay [5] relates to SF-268 CNS.
Assay [6] deals with CCRF-CEM leukemia.
In assay [7] the test system is U251 CNS.
For assay [8], the system named is HCT-116 colon.
For assay [9], the system named is EKVX NSCLC.

“And” between values parts separate entries of the source, which are not always exact repeats. Equal values may be shown once.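 Step 1: Grow cells in 96-well plates. Step 2: Expose to compound for 48 hours at 5 concentrations. Step 3: Interpolate endpoints linearly; if unreached, use highest concentration. GI50: concentration for 50% inhibition of growth. TGI denotes the concentration required for complete inhibition of growth.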

For the compound `COc1cc(SC)ccc1C(=O)N1CCCC(C)C1` (stereo not given), the GI50 in assay [1], in assay [2], in [3], in [4], in assay [5] and in assay [6] was greater than 100 µM each time. The GI50 in [7] and in [8] was greater than 100 µM throughout. For the same compound, the TGI in assay [1], in assay [2], in assay [3], in assay [4], in [5] and in assay [6] was greater than 100 µM in each case. The TGI in [7] and in [8] was greater than 100 µM each time.

For the compound `CN1C=CN(Cc2ccc(-c3ccccn3)nc2)[CH-]1.CN1C=CN(Cc2ccc(-c3ccccn3)nc2)[CH-]1.[Au+3]`, the GI50 in assay [1] was 2.98 µM; in assay [2], 7.05 µM; in [3], 18.4 µM; in [4], 22 µM; in assay [5], 5.91 µM; in assay [6], 0.0834 µM. For the same compound, the GI50 was 4.35 µM in [7] and 2.4 µM in assay [8]. Further, the TGI is greater than 45 µM in [1]; 32.4 µM in assay [2]; greater than 100 µM in assay [3]; greater than 73.6 µM in [4]; 26.2 µM in [5]; 13.4 µM in [6]. For the same compound, the TGI in [7] came out at 20.8 µM; in [8], 10.9 µM.

With `O=[N+]([O-])C(=C(c1ccccc1)c1ccccc1)[N+](=O)[O-]`, the TGI in assay [1] is 30.9 µM; in [2], 6.83 µM; in assay [3], 43.2 µM; in assay [4], 36.6 µM; in [5], 12.7 µM; in [6], 22.1 µM. In addition, the TGI in [7] was determined as 26.4 µM; in assay [8], 26.3 µM.

`COc1ccccc1OCC(O)CO` (stereo not given): the GI50 in [1], in assay [2], in assay [3], in assay [4], in assay [5] and in [9] was greater than 100 µM throughout. The GI50 in [7] and in [8] was greater than 100 µM each time. Also, the TGI in assay [1], in assay [2], in [3], in assay [4], in assay [5] and in [9] was greater than 100 µM each time. Moreover, the TGI in assay [7] and in assay [8] was greater than 100 µM each time.

Turning to `COCCn1cc(-c2csc(-c3c[nH]c4ccc(F)cc34)n2)c2cccnc21`, the GI50 in [1] was greater than 100 µM; in assay [2], 3.89 µM; in [3], 9.54 µM; in [4] it was 4.41 µM; in assay [5], 7.67 µM; in assay [9], 1.98 µM. Also, the values for the GI50 in assay [7] and in assay [8] were 5.14 µM and 3.77 µM, respectively. Further, the TGI in assay [1], in [2], in [3], in [4], in [5] and in assay [9] was greater than 100 µM in each case. Also, the TGI in assay [7] and in [8] was greater than 100 µM in each case.

Regarding `NC(=O)c1ccc(NC(=O)c2oc3ccccc3c2-c2cnn(-c3ccccc3)c2)cc1`, the GI50 in assay [1] was greater than 100 µM; in assay [2] it was 20.4 µM; in assay [4], greater than 100 µM; in assay [5], 5.79 µM; in [7], 5.42 µM. Moreover, the TGI was greater than 100 µM in [1]; greater than 100 µM in [2]; greater than 100 µM in assay [4]; greater than 100 µM in assay [5]; greater than 23.2 µM in assay [6]; greater than 100 µM in assay [7].

For the compound `C[C@H]1CC(=O)[C@@]2(O)C#C/C=C\C#C[C@@H]3Nc4c(cc(O)c5c4C(=O)c4ccccc4C5=O)[C@]24O[C@]314`, the GI50 is 0.0025 µM in assay [1]; 0.0025 µM in assay [3]; 0.00599 µM in assay [5]; 0.292 µM in assay [9]; 0.0025 µM in assay [6]; 0.0025 µM in [8]. Moreover, the TGI is 0.0288 µM and 0.0201 µM in assay [1]; 0.0597 µM and 0.0512 µM in assay [3]; 0.0897 µM and 0.543 µM in assay [5]; 0.885 µM and 1.4 µM in [9]; 0.453 µM in [7]; 0.178 µM and 0.0836 µM in [8].

With `CN(C)c1ccc(/C=N/Nc2ccc(-c3nc4ccccc4[nH]3)cc2)cc1`, the GI50 is greater than 50 µM in assay [1]; 8.27 µM in assay [2]; 5 µM in [3]; 7.44 µM in assay [4]; 7.36 µM in [5]; 17.6 µM in assay [9]. For the same compound, the GI50 in [7] was 6.3 µM; in assay [8], 15.1 µM. For the same compound, the TGI was greater than 50 µM in assay [1]; 26.4 µM in [2]; greater than 50 µM in [3]; 23.8 µM in [4]; 39.8 µM in assay [5]; greater than 50 µM in assay [9]. In addition, the TGI in [7] is 21.5 µM; in assay [8] it was greater than 50 µM.

For `Fc1ccc(-c2c(-c3ccncc3)n(CCN3CCOCC3)c3cccnc23)cc1`, the GI50 is greater than 25 µM in [1]; greater than 25 µM in assay [2]; greater than 25 µM in assay [3]; greater than 5.79 µM in assay [4]; greater than 25 µM in assay [5]; greater than 25 µM in [6]. The GI50 in assay [7] and in assay [8] was greater than 25 µM each time. The TGI in assay [1], in [2], in assay [3], in assay [4], in [5] and in [6] was greater than 25 µM each time. The TGI in assay [7] and in assay [8] was greater than 25 µM in each case.

Consider `ClCc1ccc(Cn2cnc3ncnc(Cl)c32)cc1`, for which the GI50 in assay [1] is 3.61 µM; in assay [2], 6.3 µM; in assay [3] it was 2.01 µM; in assay [4], 4.82 µM; in [5], 1.64 µM; in assay [9], 2.25 µM. Besides, the GI50 in assay [7] was 1.09 µM. The TGI was 14.9 µM in assay [1]; greater than 100 µM in [2]; 4.42 µM in assay [3]; 66.7 µM in [4]; 3.43 µM in [5]; 4.45 µM in [9]. Also, the TGI in [7] is 2.29 µM.

As for `C=C1C(=O)O[C@H]2[C@H](OC(C)=O)[C@@H](C)CCC/C(C)=C/CC[C@]3(CO3)[C@H](O)C[C@@H]12`, the GI50 in [1] was 4.26 µM; in [2] it was 14.8 µM; in assay [3], 1.91 µM; in [4] it was 6.29 µM; in assay [5], 3.93 µM; in [9], 4.52 µM. The GI50 was 1.87 µM in assay [6] and 3.71 µM in assay [7]. In addition, the TGI in assay [1] was found to be 14.3 µM; in [2] it was 31.9 µM; in [3], 4.51 µM; in assay [4] it was 19.9 µM; in assay [5] it was 13.6 µM; in assay [9], 17.3 µM. For the same compound, the figures for the TGI in [6] and in [7] were 4.77 µM and 12.4 µM, respectively.

On to `CCOc1ccc(N2C(N)=NC(N)=NC2(C)C)cc1`, for which the GI50 in [1] was 52.7 µM; in assay [2], greater than 100 µM; in [3], greater than 100 µM; in assay [4], greater than 100 µM; in [5] it was 49.3 µM; in assay [6], greater than 100 µM. In addition, the GI50 in assay [7] is 36.6 µM; in [8], 34.6 µM. The TGI in assay [1], in assay [2], in assay [3], in assay [4], in assay [5] and in assay [6] was greater than 100 µM in each case. For the same compound, the TGI in assay [7] and in assay [8] was greater than 100 µM throughout.

Take `CCn1c(-c2cc3ccccc3cc2OC(=O)c2ccccc2)n[nH]c1=S`: the GI50 in assay [1] was 35.9 µM; in [2] it was 25.5 µM; in [3] it was 24.7 µM; in assay [4], 21.1 µM; in assay [5], greater than 50 µM; in assay [9] it was 10.7 µM. For the same compound, the GI50 was greater than 50 µM in [7] and 43.1 µM in assay [8]. The TGI in assay [1], in assay [2], in [3], in assay [4], in [5] and in assay [9] was greater than 50 µM in each case. Moreover, the TGI in [7] and in assay [8] was greater than 50 µM in each case.

Regarding `O=C(Nc1ccc(-c2nc3ccc(NC(=O)c4ccc(Cl)cc4)cc3[nH]2)cc1)c1ccc(Cl)cc1`, the GI50 was 12 µM in assay [1]; 12.6 µM in [2]; 7.12 µM in assay [3]; 8.19 µM in [4]; 5.78 µM in assay [5]; 0.433 µM in [6]. Also, the values for the GI50 in assay [7] and in assay [8] were 0.412 µM and 2.71 µM, respectively. The TGI in assay [1] stood at 24.3 µM; in assay [2] it was 25.2 µM; in assay [3], 23.7 µM; in [4], 20 µM; in [5], 18.5 µM; in assay [6], 4.41 µM. Besides, the TGI is 3.21 µM in [7] and 10.8 µM in [8].
